In paper PMC12298629, “New Derivatives of Caracasine Acid with Anti-Leukemic Activity and Limited Effectiveness in Spheroid Cultures” (Pharmaceuticals, 2025):

How the values were obtained:
caspase 8 = experiment: Caspase 8 activity in lysed HCT116 cells from 2D and spheroids; assay type: cell-based, human; details: 12 h; for Caspase 8 activity, 2D culture: HCT116 parental, 25 µM; for Caspase 8 activity, spheroid culture: HCT116 parental spheroids, 25 µM (cisplatin 15 μM)
Protocol: (§1) The assay was designed to evaluate the impact of various compounds on caspase activity using a standardized quantity of cell protein lysates after 12 h of incubation. The parental line HCT116 served as the basis for these experiments. Three distinct caspases were examined employing the fluorescence assay kits from Calbiochem (San Diego, CA, USA), specifically a fluorometric caspase-8 assay kit and a fluorimetric caspase-3 assay kit. Additionally, the fluorometric kit from Abcam was utilized to assess caspase-9 activity. Due to the variations in protocols for each caspase, separate plates were prepared for each assay, encompassing both two-dimensional (2D) cell cultures and spheroids. The compound concentrations were established at 25 µM, and assays were conducted in quintuplicate following a 12-h incubation period. The cells were harvested from the plates using the standard trypsin-EDTA solution (Merck Sigma Aldrich, Saint Louis, MO, USA), washed, and counted before lysis, as described in each kit. Cell processing adhered to the guidelines provided by the respective companies, and protein concentration was calculated and standardized using the standard BCA assay. Fluorescent readings were captured using the Enspire apparatus (Perkin-Elmer, MA, USA). Positive controls utilized included staurosporine at a concentration of 5 μM and cisplatin at 15 μM. The kits provided their own standards; however, to normalize all the readings between cultures, types, and treatments, the results were expressed as a percentage relative to the positive control, staurosporine, in 2D culture. […] A total of three separate assays were conducted for each caspase.

caspase 9 = experiment: Caspase 9 activity in lysed HCT116 cells from 2D and spheroids; assay type: cell-based, human; details: 12 h; for Caspase 9 activity, 2D culture: HCT116 parental, 25 µM; for Caspase 9 activity, spheroid culture: HCT116 parental spheroids, 25 µM (cisplatin 15 μM)
Protocol: as §1

RAMOS = experiment: Cytotoxic MTS assay, Ramos; assay type: cell-based; details: Ramos, human leukemia cell line, 72 h, median of five assays
Source text: (§2) The cancer cell lines used in the cytotoxic assays were acquired from the American Tissue Culture Collection (ATCC) (Manassas, VA, USA) and maintained as described previously. The MRC-5 and BJ human fibroblasts were used as non-tumoral control cells. The (MRC-5 LD and BJ LD) are also human fibroblast cell lines resistant to doxorubicin. […] The Raji and Ramos cell lines correspond to B-cell leukemia. Other cells, such as U2OS, represent a child osteosarcoma, while HCT116 is a colorectal tumor cell line. (HCT116p53^−/−, Horizon Discovery Ltd., Cambridge, UK) is a similar cell line with its p53 gene knocked down, serving as a model of human cancer frequently associated with a poor prognosis. The cells were maintained in Nunc/corning 80 cm^2 plastic tissue culture flasks and cultured in a cell culture medium according to ATCC or Horizon recommendations (McCoy, DMEM/RPMI 1640 with 5 g/L glucose, 2 mM glutamine, 100 U/mL penicillin, […] streptomycin, 10% fetal calf serum, and NaHCO3). The compounds were freshly dissolved in DMSO. The final concentration of DMSO was 0.01% in the cell culture.
(§3) The in vitro cytotoxicity of compounds (1–7) was assessed using the standard 3-(4,5-dimethyl-thiazol-2yl)-5-(3-carboxymethoxyphenyl)-2-(sulfophenyl)-2H-tetrazolium (MTS). The assay was performed at the Institute of Molecular and Translational Medicine using a robotic platform (High-ResBiosolutions, Beverly, MA, USA). Cell suspensions were prepared and diluted according to the specific cell type and the expected target cell density (25,000–35,000 cells/mL, based on cell growth characteristics). An automatic pipettor (30 μL) was used to add cells into 384-well microtiter plates. All tested compounds were dissolved in 100% DMSO, and four-fold dilutions of the intended test concentrations were added in 0.15 μL aliquots at time zero to the microtiter plate wells by the echo acoustic non-contact liquid handler Echo550 (Labcyte, San Jose, CA, USA). The assays were accomplished in technical duplicates and at least three biological replicates. The cells were incubated with the tested compound for 72 h at 37 °C in a 5% CO2 atmosphere with 100% humidity. At the end of the incubation period, cells were assayed using the MTS test. Aliquots (5 μL) of the MTS stock solution were pipetted into each well and incubated for 1–4 h. After this incubation period, the optical density (OD) was measured at 490 nm using an Envision reader (PerkinElmer, Waltham, MA, USA). Tumor cell survival (TCS) was calculated using the following equation: TCS = (OD drug-exposed well/mean OD control wells) × 100%. The IC50 value, representing the concentration of the compound lethal to 50% of the tumor cells, was calculated from the corresponding dose-response curves using Dotmatics software (Updated version 2022, London, UK). After three days of incubation on the cancer cell lines and normal fibroblasts, the […] (IC50) were obtained. Five assays were performed for each cell line. The standard error of the assays was lower than 10%, as assessed by the triplicate assays.

CCRF-CEM = experiment: Cytotoxic MTS assay, CCRF-CEM; assay type: cell-based; details: CCRF-CEM, human leukemia cell line, 72 h, median of five assays
Source text: as §2, §3

MRC-5 LD = experiment: Cytotoxic MTS assay, MRC-5 LD fibroblasts (doxorubicin-resistant); assay type: cell-based; details: MRC5, doxorubicin-resistant human fibroblasts, 72 h, median of five assays
Source text: as §2, §3

caspase 3 = experiment: Caspase 3 activity in lysed HCT116 cells from 2D and spheroids; assay type: cell-based, human; details: 12 h; for Caspase 3 activity, 2D culture: HCT116 parental, 25 µM; for Caspase 3 activity, spheroid culture: HCT116 parental spheroids, 25 µM (cisplatin 15 μM)
Protocol: as §1

BJ = experiment: Cytotoxic MTS assay, BJ fibroblasts; assay type: cell-based; details: BJ, human fibroblasts, 72 h, median of five assays
Source text: as §2, §3

HCT116 par = experiment: Cytotoxic MTS assay, HCT116 parental 2D; assay type: cell-based; details: HCT-116, human tumors 2D, 72 h, median of five assays
Source text: as §2, §3

RAJI = experiment: Cytotoxic MTS assay, Raji; assay type: cell-based; details: Raji, human leukemia cell line, 72 h, median of five assays
Source text: as §2, §3

A549 spheroids = experiment: Spheroid viability assay (CellTiter-Glo 3D), A549 spheroids; assay type: cell-based; details: A549, human tumors spheroids, 72 h, 100 pM to 50 μM
Protocol: Spheroid culture aims to analyze the drug’s effect on complex structures resembling solid tumors. The spheroids were prepared using the specific nonadherent plates for spheroid formation (Nunc Sphera, Thermo Fisher, Waltham, MA, USA) according to the simple protocol outlined by the manufacturer. The cell lines HCT116 parental, HCT116KOTp53, A549, and U2OS were cultured at a density of 2500 cells per well using medium containing 10% fetal calf serum and antibiotics: McCoy’s 5A medium for HCT116, F-12K (Kaighn’s Modified) for A549, and Dulbecco’s Modified Eagle Medium (DMEM). The cells were grown in culture for 48 h as recommended by the manufacturer and as described by Das et al. and Muñoz-Garcia et al..
The cell viability of the treated spheroids was assessed using the kit CellTiter-Glo 3D (Promega Corporation, Madison, WI, USA). The kit is designed to measure ATP as an indicator of viability, generating a luminescent readout that is more sensitive than colorimetric or fluorescence-based methods. The spheroids were cultivated with compounds at concentrations ranging from 100 pM to 50 μM in triplicate for 72 h, and the luminescence was measured using the Enspire apparatus (PerkinElmer). A standard curve was performed for each analysis as recommended by the manufacturer.

Row | SMILES | Caspase 8 activity, 2D culture (caspase 8) | Caspase 9 activity, 2D culture (caspase 9) | IC50 (RAMOS) [µM] | IC50 (CCRF-CEM) [µM] | IC50 (MRC-5 LD) [µM] | Caspase 3 activity, 2D culture (caspase 3) | IC50 (BJ) [µM] | IC50 (HCT116 par) [µM] | IC50 (RAJI) [µM] | IC50 (A549 spheroids) [µM] | Caspase 8 activity, spheroid culture (caspase 8) | Caspase 9 activity, spheroid culture (caspase 9) | Caspase 3 activity, spheroid culture (caspase 3)
1 | C=C(C)C1CCC23CC(CCC2C1(C)CCC(=O)O)C(C)C3=O (single isomer, unassigned; ent-3) [Compound 5, Ent-3,4-Seco-15-Oxo-Kaur-4(19)-en-3-Oic Acid] | did not induce caspase activity | did not induce caspase activity | > 50 | > 50 | > 50 | did not induce caspase activity | > 50 | > 50 | > 50 | > 50 |  |  | 
2 | C=C(C)C1CCC23CC(CCC2C1(C)CCC(=O)OC(C)=O)C(C)C3=O (single isomer, unassigned; ent-3) [Compound 6, Ent-3,4-Seco-15-Oxo-Kaur-4(19)-en-Acetic Anhydride] | did not induce caspase activity | did not induce caspase activity | > 50 | > 50 | > 50 | did not induce caspase activity | > 50 | > 50 | > 50 | > 50 |  |  | 
3 | C=C1C(=O)C23CCC(C(=C)C)C(C)(CCC(=O)OC)C2CCC1C3 (stereo not drawn) [Compound 2, Caracasine] |  |  | 0.96 | 0.86 | 6.36 | significant changes | 7.28 | 2.02 | 1.45 | > 50 | absence of caspase activity | absence of caspase activity | absence of caspase activity
4 | C=C1C(=O)C23CCC(C(=C)C)C(C)(CCC(=O)OC(C)=O)C2CCC1C3 (stereo not drawn) [Compound 7, Caracasine-Acetic Anhydride] |  |  | 0.96 | 0.45 | 5.53 | significant changes | 7.68 | 2.12 | 2.21 | > 50 | absence of caspase activity | absence of caspase activity | absence of caspase activity
